According to patent publication US8889629B2, “Use of a cyclic undecapeptide for the preparation of a medicament for administration during myocardial ischaemic events” (Debiopharm International SA, priority 2005, dated 2014):

Legend:
[1] = test system: myocardial infarction (ischemia-reperfusion); experiment: Model of ischemia-reperfusion in the rabbit, cardioprotective effect (infarction size); format: in vivo
Procedure: The aim of this study is to test the cardioprotective effect of the cyclic undecapeptide of formula (I), otherwise referred to as [MeAla]^3-[EtVal]^4-CsA, in terms of reduction in the size of the myocardial infarction measured 4 hours after the occurrence of the infarction.
After tracheotomy and ventilation with ambient air, a thoracotomy is performed in the fourth left intercostal space. A marginal branch of the left circumflex coronary artery is ligatured using a 3.0 silk suture thread. During the procedure, the temperature, the heart rate and the blood pressure are controlled. After occlusion for 30 minutes, the ligature is released (reperfusion) and the animals are kept in a controlled atmosphere for 4 hours before euthanasia.
One group of animals receives the pharmaceutical carrier for [MeAla]^3-[EtVal]^4-CsA, another group is treated with [MeAla]^3-[EtVal]^4-CsA intravenously in the form of a single injection respectively of 20 mg/kg, one minute before the ligature is released. Four hours after the reperfusion, the coronary artery is briefly reoccluded and a blue dye is injected intravenously so as to determine the zone at risk. […] The areas of the zones at risk and of the infarcted myocardium or area of necroses are determined by planimetry. The size of the infarction and the size of the zone at risk are calculated and expressed as percentage of left ventricular weight.

[2] = test system: myocardial infarction (ischemia-reperfusion); experiment: Model of ischemia-reperfusion in the mouse, post-infarction period (infarction size, ventricular remodeling, survival); format: in vivo
Procedure: After anesthesia, the mice are intubated and ventilated with a rodent ventilator. The rectal temperature is controlled and maintained at 38°-39° C. After sternotomy, the anterior interventricular artery is ligatured with an 8-0 polypropylene thread. The ischemia is visualized through the appearance of an elevated ST segment on the ECG (electrocardiogram) and the paleness of the myocardium. After 25 minutes of occlusion, the ligature is released and the reperfusion is verified by visual inspection and disappearance of the upshift in the ST segment. The thoracic wall is closed by suturing and the mice are kept in a controlled-temperature atmosphere.
One group of animals receives the carrier for [MeAla]^3-[EtVal]^4-CsA; another group is treated with [MeAla]^3-[EtVal]^4-CsA by intravenous injection (single injection at 10 mg/kg), 3 minutes before the ligature is released. The animals are monitored for 30 days and the mortality is reported for each group.
Four weeks after the reperfusion, the left ventricular remodeling is studied by Doppler echocardiography and the left ventricular ejection fraction is measured.
The zone at risk and the size of the infarction are determined in a group of animals that have undergone 25 minutes of coronary occlusion followed by 24 hours of reperfusion. After a brief reocclusion of the anterior interventricular artery, a blue dye is injected via the vena cava so as to determine the zone at risk. The animals are anesthetized and the heart is excised. The ventricle is cut into 5 thin slices and photographed. Incubation of these slices in 2,3,5-triphenyltetrazolium for 15 minutes at 37° C. makes it possible to differentiate the live (brick red) and necrosed (pale yellow) zones of the myocardium. The slices are photographed. The areas of the zones at risk and of the infarcted myocardium are determined by planimetry. The size of the infarction and the size of the zone at risk are calculated and expressed as percentage of left ventricular weight.

[3] = test system: human immunodeficiency virus; details: cited from earlier work
[4] = compared with cyclosporin A; cited from earlier work
[5] = test system: septic shock with myocardial dysfunction; experiment: Model of septic shock in the mouse (cecal ligature and puncture), survival; format: in vivo; details: 10 mg/kg parenteral injection just after induction of septic shock, 72 hours after induction of the sepsis (FIG. 2)
Procedure: After the mice had been anesthetized, a peritonitis is induced by cecal ligature and puncture, as follows: a median laparotomy is performed, the cecum is lifted out and a single puncture of said cecum is performed below the ileocecal valve with a 21-gauge needle. The cecum is put back into the abdominal cavity, which is then sutured in 2 planes. After the mice have come round, they are given a parenteral injection of the analgesic nalbuphine.
One group of animals receives physiological saline (control group); another group is treated with [MeAla]^3-[EtVal]^4-CsA at a rate of 10 mg/kg by parenteral injection just after surgical induction of septic shock. The animals are monitored for 4 days and the mortality is reported for each group.

[6] = test system: MPTP of mitochondria isolated from the brain; details: Hansson et al. 2004; cited from earlier work

With [MeAla]^3-[EtVal]^4-CsA the “decrease in the size of the infarction in the zone at risk compared with pharmaceutical carrier” value ([1]; 20 mg/kg i.v., 4 hours after reperfusion) was ~40%, the “Infarction size (AN/AR ± SD)” value ([1]; 30 min occlusion, single i.v. injection 20 mg/kg one minute before ligature release, measured 4 hours after reperfusion) was 29 ± 6.0% and the “Left ventricular ejection fraction ± SD” value ([2]; mouse, 10 mg/kg i.v. 3 minutes before ligature release, Doppler echocardiography 4 weeks after reperfusion) was 77 ± 6%. For the same substance, the “mortality rate at 4 weeks” value ([2]; mouse, 10 mg/kg i.v. 3 minutes before ligature release, vs carrier (FIG. 1)) was “a decrease in the mortality rate”, the “decrease in the size of the infarction in the zone at risk” value ([2]; mouse, 10 mg/kg i.v., 24 hours after reperfusion, vs carrier (table 2)) was ~50% and the “Infarction size (AN/AR ± SD)” value ([2]; mouse, 25 min occlusion, single i.v. injection 10 mg/kg 3 minutes before ligature release, 24 hours after reperfusion) was 32.1 ± 7.3%. For the same substance, the “beneficial effects when administration is too early or too late relative to the reperfusion” value ([2]; same dose of active compound) was “not obtained”, the “activity in terms of inhibiting the action of the human immunodeficiency virus” value [3] was “strong activity” and the immunosuppressive properties [4] was “not having the well-known immunosuppressive properties”. For the same substance, the survival rate [5] was “approximately 60%” and the “neuroprotective potential: inhibition of MPTP” value [6] was “inhibition of MPTP”.
